These are literature values, as cited in patent publication US20050266073A1, “Fast disintegrating granules containing bromhexin/bromhexinhydrochloride, process for their preparation, and their use in veterinary medicine” (Boehringer Ingelheim Vetmedica GmbH, priority 2004, published 2005).

Assay in series [1]: not given
This is another data set of the same source.

In the case of `CN(Cc1cc(Br)cc(Br)c1N)C1CCCCC1` [Bromhexin, N-cyclohexyl-N-methyl-(2-amino-3,5-dibrombenzyl)amine], the solubility in water is recorded as 1 g/250 ml and the “solubility in water (in words)” value is “soluble with difficulty”.

For `CN(Cc1cc(Br)cc(Br)c1N)C1CCCCC1.Cl` [Bromhexinhydrochloride], the “solubility in ethanol, methanol and methylene chloride (in words)” value in series [1] is given as “dissolves with difficulty”.
